Tests used:
CYP1A2 = assay: CYP mRNA induction in plated human hepatocytes (qPCR); settings: for Apparent Emax: CYP1A2 mRNA, EBO 0.3–100 µM, M3 1–250 µM
Description: (§1) The induction potential of EBO and M3 on CYP1A2, CYP2B6, and 3A4 was evaluated by incubating the test articles with plated human hepatocytes from 3 individual donors (GKJ, ZEY, WKF) in triplicate according to WuXi AppTec (Cranbury, NJ, USA) SOP.
(§2) At the end of incubation, the RNA of human hepatocytes was isolated and the mRNA expression levels of CYP 1A2, 2B6, and 3A4 were evaluated by using real-time polymerase chain reaction (qPCR) after being reverse-transcribed (RT) to cDNA following manufacturer’s instruction (thermos Fisher Scientific (Waltham, MA, USA). On the last dosing day with EBO or M3, incubation samples were extracted in triplicate by the addition of ice-cold quench solutions at 0, 0.5, 1, 2, 4, 6, and 24 h after dosing and the extracted samples were analyzed using LC-MS/MS to determine the EBO or M3 concentration in each sample.

CYP3A4 = assay: as above; settings: for Apparent Emax: EBO 0.3–100 µM, M3 1–250 µM; for EC50 at 2 days: human
Description: as §1, §2

CYP2B6 = assay: as above; settings: for Apparent Emax: CYP2B6 mRNA, EBO 0.3–100 µM, M3 1–250 µM
Description: as §1, §2

BCRP = target: T1, BCRP (Homo sapiens, UniProt Q9UNQ0); assay: Substrate potential for BCRP, bidirectional permeability in BCRP-MDCK; type: in vitro ADME; settings: for Concentration in the receiver compartment: 5 µM, BCRP-MDCK and MDCK cells, A to B and B to A, Papp and efflux ratio could not be calculated; for as a Substrate: BCRP
T1 construct: host or cells: MDCK (BCRP-MDCK)
T1 sequence (Q9UNQ0 1-655): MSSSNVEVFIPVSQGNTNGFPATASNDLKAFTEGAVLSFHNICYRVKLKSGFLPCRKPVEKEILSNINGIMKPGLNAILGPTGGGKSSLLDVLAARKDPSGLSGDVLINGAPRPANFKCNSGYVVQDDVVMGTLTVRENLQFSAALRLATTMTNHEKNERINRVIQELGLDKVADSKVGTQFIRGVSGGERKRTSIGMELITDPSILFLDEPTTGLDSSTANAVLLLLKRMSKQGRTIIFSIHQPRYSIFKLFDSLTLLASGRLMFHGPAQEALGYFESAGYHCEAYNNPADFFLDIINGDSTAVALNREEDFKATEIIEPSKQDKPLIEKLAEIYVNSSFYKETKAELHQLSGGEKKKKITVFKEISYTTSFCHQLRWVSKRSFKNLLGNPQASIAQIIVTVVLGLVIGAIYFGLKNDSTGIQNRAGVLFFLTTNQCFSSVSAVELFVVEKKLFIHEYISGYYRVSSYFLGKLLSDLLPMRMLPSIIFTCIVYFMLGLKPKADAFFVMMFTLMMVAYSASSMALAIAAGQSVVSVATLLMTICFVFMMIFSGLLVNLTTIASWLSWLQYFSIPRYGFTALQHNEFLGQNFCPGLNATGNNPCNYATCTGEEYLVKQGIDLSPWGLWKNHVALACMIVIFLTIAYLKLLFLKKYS

OATP1B1 = target: T2, OATP1B1 (Homo sapiens, UniProt Q9Y6L6); assay: Substrate potential in transporter-transfected MDCK cells; type: in vitro ADME
T2 construct: host or cells: MDCK
T2 sequence (Q9Y6L6 1-691): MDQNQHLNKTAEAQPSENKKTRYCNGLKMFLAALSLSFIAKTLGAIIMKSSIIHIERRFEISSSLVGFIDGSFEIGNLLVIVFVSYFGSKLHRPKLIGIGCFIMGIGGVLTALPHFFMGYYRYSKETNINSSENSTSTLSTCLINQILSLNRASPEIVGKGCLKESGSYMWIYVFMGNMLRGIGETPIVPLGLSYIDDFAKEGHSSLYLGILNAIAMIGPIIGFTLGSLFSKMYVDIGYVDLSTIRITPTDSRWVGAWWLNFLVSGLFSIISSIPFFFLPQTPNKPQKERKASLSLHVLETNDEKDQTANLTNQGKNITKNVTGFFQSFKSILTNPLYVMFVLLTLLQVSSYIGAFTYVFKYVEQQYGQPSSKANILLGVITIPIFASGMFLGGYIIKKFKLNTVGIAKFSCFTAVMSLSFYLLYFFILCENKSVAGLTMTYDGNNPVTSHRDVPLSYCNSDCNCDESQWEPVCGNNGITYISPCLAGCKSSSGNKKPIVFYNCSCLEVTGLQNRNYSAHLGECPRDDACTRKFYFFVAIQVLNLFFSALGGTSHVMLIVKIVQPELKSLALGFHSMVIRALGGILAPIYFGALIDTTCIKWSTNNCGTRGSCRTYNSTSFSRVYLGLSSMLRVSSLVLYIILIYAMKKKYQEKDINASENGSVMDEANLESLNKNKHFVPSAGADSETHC
Description: (§3) The uptake of a probe substrate of each transporter was conducted in parallel with the test article in separate wells of the same batch of vector control and transporter-transfected cells. Cells were incubated at 37 °C with 5% CO2 with 500 μL of dosing solution for different periods of time.

MATE1 = target: T3, MATE1 (Homo sapiens, UniProt Q96FL8); assay: as above; type: in vitro ADME
T3 construct: host or cells: MDCK
T3 sequence (Q96FL8 1-570): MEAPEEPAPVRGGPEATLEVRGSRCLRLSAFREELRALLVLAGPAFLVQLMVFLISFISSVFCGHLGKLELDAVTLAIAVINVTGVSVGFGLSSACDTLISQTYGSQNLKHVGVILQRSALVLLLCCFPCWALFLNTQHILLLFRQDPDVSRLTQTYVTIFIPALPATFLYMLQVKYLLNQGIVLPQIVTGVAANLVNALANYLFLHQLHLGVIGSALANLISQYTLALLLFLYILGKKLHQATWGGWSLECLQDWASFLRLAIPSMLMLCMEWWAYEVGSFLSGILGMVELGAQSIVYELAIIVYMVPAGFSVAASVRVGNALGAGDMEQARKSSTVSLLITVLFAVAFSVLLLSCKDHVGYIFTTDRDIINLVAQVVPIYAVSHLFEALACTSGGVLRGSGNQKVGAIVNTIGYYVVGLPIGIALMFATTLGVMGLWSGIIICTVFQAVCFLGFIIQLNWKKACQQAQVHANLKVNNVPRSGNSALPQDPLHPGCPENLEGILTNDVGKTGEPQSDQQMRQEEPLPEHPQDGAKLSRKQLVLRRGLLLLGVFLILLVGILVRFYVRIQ
Description: as §3

[1] = at 100 µM, EBO 2 out of 3 donors, M3 1 out of 3 donors

SMILES	Apparent Emax (CYP1A2; donor one)	Apparent Emax (CYP1A2; donor three)	Apparent Emax (CYP1A2; donor two)	Apparent Emax (CYP3A4; CYP3A4 mRNA, donor one)	Apparent Emax (CYP3A4; CYP3A4 mRNA, donor three)	Apparent Emax (CYP3A4; CYP3A4 mRNA, donor two)	CYP3A4 mRNA expression induction (CYP3A4; [1])	Apparent Emax (CYP2B6; donor one)	Apparent Emax (CYP2B6; donor three)	Apparent Emax (CYP2B6; donor two)	Concentration in the receiver compartment (BCRP)	as a Substrate (BCRP)	Influx ratio (OATP1B1)	as a Substrate (OATP1B1)	Influx ratio (MATE1)	as a Substrate (MATE1)	also measured
NC[C@H]1OB(O)c2c(OCCCO)cccc21 [EBO, Epetraborole]	<2 Fold	<2 Fold	<2 Fold	>2.98 Fold	<2 Fold	>2.93 Fold	~ 3 fold	<2 Fold	<2 Fold	>2.18 Fold	below the lower limit of quantification	No	< 2	No	< 2	No	Inducer of CYP1A2 mRNA (in words) (CYP1A2; hepatocytes): not an inducer; Inducer of CYP3A4 (in words) (CYP3A4; hepatocytes): weak inducer; EC50 at 2 days (CYP3A4; plated human hepatocytes): > 100 µM; EC50 (CYP3A4; read-out: Apparent EC50, CYP3A4 mRNA, donor one): > 100 µM; CYP2B6 mRNA expression induction (CYP2B6; at 100 µM, 1 out of 3 donors): 2.18 fold; Inducer of CYP2B6 (in words) (CYP2B6; hepatocytes): weak inducer; EC50 at 2 days (CYP2B6; human, plated human hepatocytes): > 100 µM
NC[C@H]1OB(O)c2c(OCCC(=O)O)cccc21 [M3]	<2 Fold	<2 Fold	<2 Fold	2.16 Fold	<2 Fold	<2 Fold	2.19 fold	<2 Fold	<2 Fold	<2 Fold	below the lower limit of quantification	No	< 2	No	< 2	No	CYP3A4 mRNA expression induction (CYP3A4; at 250 µM, 1 out of 3 donors): 2.13 fold; EC50 at 2 days (CYP3A4): 32.4 µM
